Results as given in patent US12239711B2, “Cereblon ligands and bifunctional compounds comprising the same” (Arvinas Operations, Inc., priority 2014, dated 2025).

Key:
[1] = system: estrogen responsive element/promoter/luciferase reporter gene; experiment: ERE Luciferase Assay in T47D-KBluc cells; type: cell-based, human; settings: Homo sapiens, 24 hours, luciferase activity, read-out: Target Engagement IC50
Description: 1. ERE Luciferase Assay for Compounds in Table 5.
T47D-KBluc cells (ATCC® #CRL_2865, T47D human breast cancer cells stably transfected with estrogen responsive element/promoter/luciferase reporter gene) were seeded into 96-well white opaque plates in RPMI growth medium supplemented with 10% fetal bovine serum (FBS) and allowed to adhere overnight in a 37° C. humidified incubator. The following day, cells were treated with PROTACs in a 12-point concentration curve (top final concentration of 300 nM with subsequent concentrations being 3-fold less with 2 pM being the lowest concentration in the assay). Each PROTAC was tested independently in two experiments on 96-well plates. After 24 hours, media was removed and lysis buffer was added to the wells. Following lysis, Bright-Glo™ Luciferase Assay Substrate (Promega, Madison WI) was added and the luciferase activity was measured using a Cytation 3 plate reader (BioTek™, Winooski, VT). Each compound was assayed in duplicate and the activity was calculated as IC50 using GraphPad Prism software (San Diego, CA).

[2] = molecular target: T1, Estrogen Receptor-Alpha (ERα) (Homo sapiens, UniProt P03372); experiment: Estrogen Receptor-Alpha (ERα) degradation assay in MCF-7 cells (western blot / In-Cell Western); type: cell-based; settings: for Dmax: MCF7, read-out: ER Dmax; for DC50: read-out: ER DC50
T1 construct: endogenous in cells; host or cells: MCF-7 (MCF7) cells
T1 sequence (P03372 1-595): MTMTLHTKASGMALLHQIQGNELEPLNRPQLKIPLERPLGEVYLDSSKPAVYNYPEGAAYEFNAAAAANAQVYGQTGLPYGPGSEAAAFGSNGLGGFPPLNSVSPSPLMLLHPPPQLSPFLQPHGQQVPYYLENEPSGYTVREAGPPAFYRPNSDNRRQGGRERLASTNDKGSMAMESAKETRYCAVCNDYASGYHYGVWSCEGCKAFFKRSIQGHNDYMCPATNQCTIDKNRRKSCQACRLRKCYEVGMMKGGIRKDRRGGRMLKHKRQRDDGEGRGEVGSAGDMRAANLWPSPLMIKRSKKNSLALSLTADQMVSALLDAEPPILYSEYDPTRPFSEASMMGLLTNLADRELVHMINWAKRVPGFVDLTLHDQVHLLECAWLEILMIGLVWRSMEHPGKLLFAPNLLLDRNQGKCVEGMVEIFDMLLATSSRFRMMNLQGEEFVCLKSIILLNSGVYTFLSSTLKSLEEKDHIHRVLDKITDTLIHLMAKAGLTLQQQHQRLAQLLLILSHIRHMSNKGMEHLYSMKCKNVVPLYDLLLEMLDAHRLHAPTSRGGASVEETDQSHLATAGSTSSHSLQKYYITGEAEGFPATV
Description: 2. Estrogen Receptor-Alpha (ERα) Degradation Assay in MCF-7 Cells Using Western Blot Method for Table 5.
The exemplary novel ERα degraders were assessed for their activity in degrading ERα in MCF-7 cells via western blot. The assay was carried out in the presence of 10% FBS or high percentage of human or mouse serum. Protocols of the western blot assay are described below.
MCF7 cells were grown in DMEM/F12 with 10% FBS and seeded at 24,000 cells per well in 100 μl into 96-well clear tissue culture plates. The following day, the cells were treated with PROTACs in a […] concentration curve with 100 nM being the top concentration and serial dilutions to make the other concentrations (30 nM, 10 nM, 3 nM, 1 nM, and 0.3 nM). At all concentrations, 0.01% DMSO is the final concentration in the well. The following day, the plates are aspirated, washed with 50 μl of cold PBS. The cells are lysed with 50 μl/well 4° C. Cell Lysis Buffer (Catalog #9803; Cell Signaling Technology, Danvers, MA) (20 mM Tris-HCL (pH 7.5), 150 mM NaCl, 1 mM Na2EDTA, 1 mM EGTA, 1% Triton, 2.5 mM sodium pyrophosphate, 1 mM B-glycerophosphate, 1 mM sodium vanadate, 1 ug/ml leupeptin). Lysates were clarified at 16,000×g for 10 minutes, and 2 μg of protein was subjected to SDS-PAGE analysis and followed by immunoblotting according to standard protocols. The antibodies used were ERα (Cell Signaling Technologies Catalog #8644), and Tubulin (Sigma Catalog #T9026; St. Louis, MO). Detection reagents were Clarity Western ECL substrate (Bio-Rad Catalog #170-5060; Hercules, CA).
Alternatively, MCF7 cells were grown in DMEM/F12 with 10% FBS and seeded at 24,000 cells per well in 500 μl in 24-well clear tissue culture plates. The following day, the cells were treated with PROTACs in a 5-point concentration curve (100 nM, 33 nM, 11 nM, 3.7 nM, and 1.2 nM) in the presence of 0.01% DMSO. After 72 hours, the wells are aspirated and washed with 500 μl of PBS. The cells are lysed with 100 μl/well 4° C. Cell Lysis Buffer (Catalog #9803; Cell Signaling Technology, Danvers, MA) (20 mM Tris-HCL (pH 7.5), 150 mM NaCl, 1 mM Na2EDTA, 1 mM EGTA, 1% Triton, 2.5 mM sodium pyrophosphate, 1 mM B-glycerophosphate, 1 mM sodium vanadate, 1 ug/ml leupeptin). Lysates were clarified at 16,000×g for 10 minutes, and 2 μg of protein was subjected to SDS-PAGE analysis and followed by immunoblotting according to standard protocols. The antibodies used were ERα (Cell Signaling Technologies Catalog #8644), and Tubulin (Sigma Catalog #T9026; St. Louis, MO). Detection reagents were Clarity Western ECL substrate (Bio-Rad Catalog #170-5060; Hercules, CA).
3. Estrogen Receptor-Alpha (ERα) Degradation Assay Using In-Cell Western™ Assay for Table 5.
Degradation of ERα by claimed compounds were determined in MCF7 cells using an In-Cell Western™ assay. Briefly, MCF7 cells were plated in 96-well plates (2000 cells per well in 100 μl media) and incubated at 37° C. under an atmosphere of 5% CO2 in a humidified incubator overnight. One-hundred (100) μl of media containing test compound (at 2× concentration) was added to the appropriate wells to provide 11 serially decreasing concentrations (top final concentration, 1 μM then 3-fold less for the next 10 concentrations); a vehicle control (DMSO) was also added for each compound. For each experiment, all compounds were assayed in duplicate plates. Cells were then incubated for 3 or 5 days in the above-mentioned environment. The assay was terminated by removal of media, a single wash with ice-cold PBS and the addition of 50 μl paraformaldehyde (PFA: 4% in PBS). After 15 minutes in PFA at room temperature, the cells were permeabilized in Tris-phosphate-buffered saline with Tween (0.1%) (TBST) supplemented with Triton X-100 (0.5%) for 15 minutes. Cells were then blocked in BSA (TBST with BSA, 3%) for one hour. […]

SMILES | IC50 [1] [nM] | Dmax [2] [%] | DC50 [2] [nM]
COc1cc(N2CCN(CCCCCOc3ccc([C@H]4c5ccc(O)cc5CC[C@H]4c4ccccc4)cc3)CC2)cc2c1C(=O)N(C1CCC(=O)NC1=O)C2 (stereo partly drawn) [compound 1, 3-{5-[4-(5-{4-[(1S,2R)-6-hydroxy-2-phenyl-1,2,3,4-tetrahydronaphthalen-1-yl]phenoxy}pentyl)piperazin-1-yl]-7-methoxy-1-oxo-2,3-dihydro-1H-isoindol-2-yl}piperidine-2,6-dione] | 58.2 | 50 to 75 | 10 to 100
COc1cc(N2CCN(CCCCCOc3ccc([C@@H]4c5ccc(O)cc5CC[C@@H]4c4ccccc4)cc3)CC2)cc2c1C(=O)N(C1CCC(=O)NC1=O)C2 (stereo partly drawn) [compound 2, 3-(5-(4-(5-(4-((1R,2S)-6-hydroxy-2-phenyl-1,2,3,4-tetrahydronaphthalen-1-yl)phenoxy)pentyl)piperazin-1-yl)-7-methoxy-1-oxoisoindolin-2-yl)piperidine-2,6-dione] | 0.79 | ≥ 75 | 1 to 10
COc1c(N2CCN(CCCCCOc3ccc([C@@H]4c5ccc(O)cc5CC[C@@H]4c4ccccc4)cc3)CC2)ccc2c1CN(C1CCC(=O)NC1=O)C2=O (stereo partly drawn) [compound 3, 3-[5-[4-[5-[4-[(1R,2S)-6-hydroxy-2-phenyl-tetralin-1-yl]phenoxy]pentyl]piperazin-1-yl]-4-methoxy-1-oxo-isoindolin-2-yl]piperidine-2,6-dione] | 1.35 | ≥ 75 | < 1
COCCOCCOc1c(N2CCN(CCCCCOc3ccc([C@@H]4c5ccc(O)cc5CC[C@@H]4c4ccccc4)cc3)CC2)ccc2c1CN(C1CCC(=O)NC1=O)C2=O (stereo partly drawn) [compound 4, 3-[5-[4-[5-[4-[(1R,2S)-6-hydroxy-2-phenyl-tetralin-1-yl]phenoxy]pentyl]piperazin-1-yl]-4-[2-(2-methoxyethoxy)ethoxy]-1-oxo-isoindolin-2-yl]piperidine-2,6-dione] | 1.42 | ≥ 75 | < 1
COCCOCCOc1c(N2CCN(CC3CCN(c4ccc([C@H]5c6ccc(O)cc6CC[C@H]5c5ccccc5)cc4)CC3)CC2)ccc2c1CN(C1CCC(=O)NC1=O)C2=O (stereo partly drawn) [compound 5, 3-(5-{4-[(l-{4-[(1S,2R)-6-hydroxy-2-phenyl-1,2,3,4-tetrahydronaphthalen-1-yl]phenyl}piperidin-4-yl)methyl]piperazin-1-yl}-4-[2-(2-methoxyethoxy)ethoxy]-1-oxo-2,3-dihydro-1H-isoindol-2-yl)piperidine-2,6-dione] | > 300 | < 50 | 
COCCOCCOc1c(N2CCN(CC3CCN(c4ccc([C@@H]5c6ccc(O)cc6CC[C@@H]5c5ccccc5)cc4)CC3)CC2)ccc2c1CN(C1CCC(=O)NC1=O)C2=O (stereo partly drawn) [compound 6, 3-(5-{4-[(1-{4-[(1R,2S)-6-hydroxy-2-phenyl-1,2,3,4-tetrahydronaphthalen-l-yl]phenyl}piperidin-4-yl)methyl]piperazin-1-yl}-4-[2-(2-methoxyethoxy)ethoxy]-1-oxo-2,3-dihydro-1H-isoindol-2-yl)piperidine-2,6-dione] | 2.18 | < 50 | 
COCCOCCOc1c(CCN2CCCN(CCCCOc3ccc([C@H]4c5ccc(O)cc5CC[C@H]4c4ccccc4)cc3)CC2)ccc2c1CN([C@H]1CCC(=O)NC1=O)C2=O [compound 7, (3S)-3-(5-{2-[4-(4-{4-[(1S,2R)-6-hydroxy-2-phenyl-1,2,3,4-tetrahydronaphthalen-1-yl]phenoxy}butyl)-1,4-diazepan-1-yl]ethyl}-4-[2-(2-methoxyethoxy)ethoxy]-1-oxo-2,3-dihydro-1H-isoindol-2-yl)piperidine-2,6-dione] | 102 | 50 to 75 | ≥ 100
COCCOCCOc1c(CCN2CCCN(CCCCOc3ccc([C@@H]4c5ccc(O)cc5CC[C@@H]4c4ccccc4)cc3)CC2)ccc2c1CN([C@H]1CCC(=O)NC1=O)C2=O [compound 8, (3S)-3-[5-[2-[4-(4-[4-[(1R,2S)-6-hydroxy-2-phenyl-tetralin-1-yl]phenoxy]butyl]-1,4-diazepan-1-yl]ethyl]-4-[2-(2-methoxyethoxy)ethoxy]-1-oxo-isoindolin-2-yl]piperidine-2,6-dione] | 0.34 | 50 to 75 | 1 to 10
COc1cc(N2CCN(CCC3CCN(c4ccc([C@H]5c6ccc(O)cc6CC[C@H]5c5ccccc5)cc4)CC3)CC2)cc2c1C(=O)N(C1CCC(=O)NC1=O)C2 (stereo partly drawn) [compound 9, 3-(5-{4-[2-(1-{4-[(1S,2R)-6-hydroxy-2-phenyl-1,2,3,4-tetrahydronaphthalen-1-yl]phenyl}piperidin-4-yl)ethyl]piperazin-1-yl}-7-methoxy-1-oxo-2,3-dihydro-1H-isoindol-2-yl)piperidine-2,6-dione] | > 300 | 50 to 75 | ≥ 100
COc1cc(N2CCN(CCC3CCN(c4ccc([C@@H]5c6ccc(O)cc6CC[C@@H]5c5ccccc5)cc4)CC3)CC2)cc2c1C(=O)N(C1CCC(=O)NC1=O)C2 (stereo partly drawn) [compound 10, 3-[5-[4-[2-[1-[4-[(1R,2S)-6-hydroxy-2-phenyl-tetralin-1-yl]phenyl]-4-piperidyl]ethyl]piperazin-1-yl]-7-methoxy-1-oxo-isoindolin-2-yl]piperidine-2,6-dione] | 0.86 | ≥ 75 | 1 to 10
COc1cc(N2CCN(CC3CCN(c4ccc([C@H]5c6ccc(O)cc6CC[C@H]5c5ccccc5)cc4)CC3)CC2)cc2c1C(=O)N(C1CCC(=O)NC1=O)C2 (some centres unmarked) [compound 31] |  | < 50 | 
